System: KOPTK1 cells
Test: Transcriptome-scale ribosome footprinting (translational efficiency, rDiff ribosome distribution)
Assay type: cell-based, human
Settings: for log2(Translational Efficiency): TE down genes with G-Quadruplex structure
Description: Ribosome Footprinting. KOPTK1 cells were treated with silvestrol or DMSO for 45 minutes, followed by cycloheximide treatment for 10 minutes and then harvested for total RNA and ribosome footprint fragment isolation. Total RNA was isolated using RNA isolation kit from Qiagen (74104) and subjected to RNA sequencing. Ribosome protected fragments were isolated following published protocol (Ingolia et al., 2009). Briefly cell lysates were subjected to ribosome footprinting by nuclease treatment. Footprint fragments were purified by one step sucrose cushion and gel extraction. Deep sequencing libraries were generated from these fragments. Both total RNA and footprint fragment libraries were analyzed by sequencing on the HiSeq 2000 platform.
Sequence Alignment. Sequences were aligned to the transcripts available from the human genome sequence hg19 from UCSC public database. Ribosome footprint (RF) reads were aligned to reference genome hg19 using PALMapper (Jean et al., 2010). Only the uniquely aligned reads were used for analysis. Read length of 25- to 35-bp was selected and used to analyze the translation effect of silvestrol. Total mRNA sequencing reads were aligned to the hg19 reference using STAR (Dobin et al., 2013). The splice alignment was used, and only used the uniquely aligned reads with maximum 3 mismatches.
Footprint Profile Analysis. The genome annotation was from GENCODE project (http://www.gencodegenes.org/releases/14.html). Ribosome footprint intensity (reads per million, RPM) and the expression value (reads per kilobase per million, RPKM) were measured from total mRNA-seq data and translation values were measured from ribosome footprint data. To evaluate the translation efficiency (TE) change between silvestrol- and vehicle-treated samples, TE was calculated as RPKMfootprint/RPKMmRNA (as Thoreen et al. did recently (Thoreen et al., 2012)). Changes in ribosome footprint profiles were determined by using DEXSeq algorithm (Anders et al., 2012). DEXSeq accounts for the discrete nature of the read counts and models biological variability to avoid false positives. Ratio of TEsilvestrol/TEcontrol of all the genes was plotted and color-highlighted according to the statistical significance of DEXSeq test.
Ribosome distribution analysis. The ribosomal distribution change was evaluated between silvestrol treated samples and controls. A BED file containing all non-overlapped exonic regions was generated based on genome annotation. Then the BED file and footprint BAM files were given as an input to SAMTOOLS (Li et al., 2009a) to generate new BAM files that only included exonic alignment. The exonic BAM files were input for two conditions to rDiff (Drewe et al., 2013) to identify genes that presented significant change in ribosomal distribution.
Sequence Alignment. The human genome sequence hg19 was downloaded from UCSC public database: http://hgdownload.cse.ucsc.edu/goldenPath/hg19/chromosomes. Ribosome footprint (RF) reads were aligned to reference genome hg19 using PALMapper (Jean et al., 2010). PALMapper clips the linker sequence (5′-[…]-3′), which is technically introduced during RF library construction, and trims the remaining sequence from the 3′ end while aligning the reads to reference sequence. Briefly, the parameters for PALMapper were set as follows: maximum number of mismatches: 2; maximum number of gaps: 0; minimum aligning length: 15; maximum intron length (splice alignment): 10000; minimum length of a splicing read aligned to either side of the intron boundary: 10. Only the uniquely aligned reads were used for further analysis.
To remove ribosome RNA contamination, the footprint reads were also aligned to a ribosome sequence database using PALMapper with the same parameters except allowing splice alignment. […]

In the case of COC(=O)[C@H]1[C@@H](O)[C@@]2(O)c3c(OC)cc(O[C@@H]4O[C@@H]([C@H](O)CO)CO[C@H]4OC)cc3O[C@@]2(c2ccc(OC)cc2)[C@@H]1c1ccccc1 [silvestrol], the “effect on cap-dependent translation (ribosome footprints)” value (25 nM, 45 minutes) is reported as “immediate and broad inhibitory effect”, the “log2(Translational Efficiency)” value (gene ADAM10 (ENSG00000137845)) is reported as −0.2089 and the “log2(Translational Efficiency)” value (gene AFTPH (ENSG00000119844)) is reported as −0.5917. The “log2(Translational Efficiency)” value (gene ATP2B4 (ENSG00000058668)) was −0.3028, the “log2(Translational Efficiency)” value (gene BCL11B (ENSG00000127152)) was −0.5178 and the “log2(Translational Efficiency)” value (gene C16orf72 (ENSG00000182831)) was −0.2553. The “log2(Translational Efficiency)” value (gene CAMK2D (ENSG00000145349)) was −0.4082, the “log2(Translational Efficiency)” value (gene CCRN4L (ENSG00000151014)) was −0.4802 and the “log2(Translational Efficiency)” value (gene CDIPT (ENSG00000103502)) was −0.324. The “log2(Translational Efficiency)” value (gene CERS6 (ENSG00000172292)) was −0.2051, the “log2(Translational Efficiency)” value (gene CHIC2 (ENSG00000109220)) was −0.5212 and the “log2(Translational Efficiency)” value (gene CHST11 (ENSG00000171310)) was −0.146. For the same molecule, the “log2(Translational Efficiency)” value (gene CPSF4 (ENSG00000160917)) was −0.3194, the “log2(Translational Efficiency)” value (gene DIAPH1 (ENSG00000131504)) was −0.2136 and the “log2(Translational Efficiency)” value (gene DOM3Z (ENSG00000204348)) was −0.5959. The “log2(Translational Efficiency)” value (gene DYNLL2 (ENSG00000121083)) was −0.1378, the “log2(Translational Efficiency)” value (gene EP300 (ENSG00000100393)) was −0.4645 and the “log2(Translational Efficiency)” value (gene FAM49B (ENSG00000153310)) was −0.1392. For the same molecule, the “log2(Translational Efficiency)” value (gene FKRP (ENSG00000181027)) was −0.996, the “log2(Translational Efficiency)” value (gene FOXJ2 (ENSG00000065970)) was −0.4735 and the “log2(Translational Efficiency)” value (gene GABARAPL1 (ENSG00000139112)) was −1.234. For the same molecule, the “log2(Translational Efficiency)” value (gene GIPC1 (ENSG00000123159)) was −0.4783, the “log2(Translational Efficiency)” value (gene GNB1 (ENSG00000078369)) was −0.1338 and the “log2(Translational Efficiency)” value (gene GYG2 (ENSG00000056998)) was −0.9297. The “log2(Translational Efficiency)” value (gene HDGFRP3 (ENSG00000166503)) was −0.6088, the “log2(Translational Efficiency)” value (gene HIPK1 (ENSG00000163349)) was −0.2827 and the “log2(Translational Efficiency)” value (gene ITPR1 (ENSG00000150995)) was −0.6283. The “log2(Translational Efficiency)” value (gene MAP3K2 (ENSG00000169967)) was −0.377, the “log2(Translational Efficiency)” value (gene MAPKAPK2 (ENSG00000162889)) was −0.3527 and the “log2(Translational Efficiency)” value (gene MBNL1 (ENSG00000152601)) was −0.1522. For the same molecule, the “log2(Translational Efficiency)” value (gene MED13 (ENSG00000108510)) was −0.2939, the “log2(Translational Efficiency)” value (gene MED13L (ENSG00000123066)) was −0.4159 and the “log2(Translational Efficiency)” value (gene MGRN1 (ENSG00000102858)) was −0.3096. For the same molecule, the “log2(Translational Efficiency)” value (gene MTA2 (ENSG00000149480)) was −0.2235, the “log2(Translational Efficiency)” value (gene MYO9A (ENSG00000066933)) was −0.4735 and the “log2(Translational Efficiency)” value (gene NANS (ENSG00000095380)) was −0.3218. The “log2(Translational Efficiency)” value (gene NDFIP1 (ENSG00000131507)) was −0.2429, the “log2(Translational Efficiency)” value (gene PABPC4 (ENSG00000090621)) was −0.2428 and the “log2(Translational Efficiency)” value (gene PAFAH1B1 (ENSG00000007168)) was −0.3832. For the same molecule, the “log2(Translational Efficiency)” value (gene PAFAH1B2 (ENSG00000168092)) was −0.3883, the “log2(Translational Efficiency)” value (gene PAIP2 (ENSG00000120727)) was −0.1573 and the “log2(Translational Efficiency)” value (gene PAK4 (ENSG00000130669)) was −0.628. The “log2(Translational Efficiency)” value (gene PANX1 (ENSG00000110218)) was −0.3987, the “log2(Translational Efficiency)” value (gene PATZ1 (ENSG00000100105)) was −0.3245 and the “log2(Translational Efficiency)” value (gene PPP6R1 (ENSG00000105063)) was −0.1576. The “log2(Translational Efficiency)” value (gene PTGER4 (ENSG00000171522)) was −0.2748, the “log2(Translational Efficiency)” value (gene PTP4A2 (ENSG00000184007)) was −0.1429 and the “log2(Translational Efficiency)” value (gene QKI (ENSG00000112531)) was −0.2913. For the same molecule, the “log2(Translational Efficiency)” value (gene RFXANK (ENSG00000064490)) was −0.3247, the “log2(Translational Efficiency)” value (gene RNF4 (ENSG00000063978)) was −0.3442 and the “log2(Translational Efficiency)” value (gene RNF19A (ENSG00000034677)) was −0.4839. The “log2(Translational Efficiency)” value (gene RPS12 (ENSG00000112306)) was −0.1732, the “log2(Translational Efficiency)” value (gene SHISA2 (ENSG00000180730)) was −0.6086 and the “log2(Translational Efficiency)” value (gene SLC25A22 (ENSG00000177542)) was −0.3386. For the same molecule, the “log2(Translational Efficiency)” value (gene SLC35B3 (ENSG00000124786)) was −0.9178, the “log2(Translational Efficiency)” value (gene SMEK1 (ENSG00000100796)) was −0.1765 and the “log2(Translational Efficiency)” value (gene SRRM2 (ENSG00000167978)) was −0.08166. For the same molecule, the “log2(Translational Efficiency)” value (gene STAG2 (ENSG00000101972)) was −0.1873, the “log2(Translational Efficiency)” value (gene TAF6 (ENSG00000106290)) was −0.2102 and the “log2(Translational Efficiency)” value (gene TBC1D24 (ENSG00000162065)) was −1.231. For the same molecule, the “log2(Translational Efficiency)” value (gene TGFB1 (ENSG00000105329)) was −0.2213, the “log2(Translational Efficiency)” value (gene TLE3 (ENSG00000140332)) was −0.2278 and the “log2(Translational Efficiency)” value (gene TMEM248 (ENSG00000106609)) was −0.2362. The “log2(Translational Efficiency)” value (gene TNRC6B (ENSG00000100354)) was −0.4442, the “log2(Translational Efficiency)” value (gene TRIM2 (ENSG00000109654)) was −2.147 and the “log2(Translational Efficiency)” value (gene TUBGCP4 (ENSG00000137822)) was −0.5346. For the same molecule, the “log2(Translational Efficiency)” value (gene UBE2G1 (ENSG00000132388)) was −0.3367, the “log2(Translational Efficiency)” value (gene USP20 (ENSG00000136878)) was −0.2066 and the “log2(Translational Efficiency)” value (gene ZNF48 (ENSG00000180035)) was −0.5828. The “log2(Translational Efficiency)” value (gene ZNF800 (ENSG00000048405)) was −0.2711.

Reference: patent publication US20150219624A1, “METHODS FOR IDENTIFYING ANTI-CANCER COMPOUNDS” (MEMORIAL SLOAN KETTERING CANCER CENTER, priority 2013, published 2015)
